# Reference: US6514989B1, “Aromatic and heteroaromatic substituted 1,2,4-triazolo pyridine derivatives” (Hoffmann-La Roche Inc., priority 2001, dated 2003)
# Experiments:
# [1] = molecular target: T1, human adenosine A2a receptor (Homo sapiens, UniProt P29274); assay: Human adenosine A2a receptor radioligand binding assay ([125I]-AB-MECA, CHO cell membranes); conditions: for Selectivity A1/A2a: ratio obtained by dividing KiHA1 by KiHA2A; for Ki: recombinant human A2a receptor expressed in CHO cells, Ki from IC50 by Cheng-Prussoff equation, read-out: hA2a Ki
# T1 construct: expressed in transfected cells; host or cells: CHO cells, semliki forest virus expression system; membrane preparation
# Experimental: Human Adenosine A2a Receptor
# The gene encoding human adenosine A2a receptor was recombinantly introduced and expressed in chinese hamster ovary (CHO) cells using the semliki forest virus expression system. Cells were harvested, washed twice by centrifugation, homogenized and again washed by centrifugation. The final washed membrane pellet was suspended in a Tris (50 mM) buffer containing 120 mM NaCl, 5 mM KCl, 2 mM CaCl2 and 10 mM MgCl2 (pH 7.4) (buffer A). The [^125I]-AB-MECA ([N(6)-(4-amino-3-iodobenzyl)-5′-N-methylcarbamoyl-adenosine]; 0.05 nM) binding assay was carried out in 96-well a plates in the presence of 20 μg of membrane protein and 0.1 U adenosine deaminase in a final volume of […] of buffer A. Non-specific binding was defined using xanthine amine congener (XAC; 2 μM). Compounds were tested at 10 concentrations from 10 μM-0.3 nM. All assays were conducted in duplicate and repeated at least two times. Assay plates were incubated for 1 hour at room temperature before filtration through Whatman Unifilter GF/C 96-well filter plates (preincubated with 0.3% polyethyleneimine). Filters were washed 3 times with 0.3 ml of cold (4° C.) Tris (50 mM)—NaC […]
# […] 1 (120 mM) buffer (pH 7.4). Microscint 40 scintillation fluid (50 μl) was added to each well and the wells sealed. After gentle shaking for 20 min, plates were counted on a Packard Topcount scintillation counter. IC50 values were calculated using a non-linear curve fitting program and Ki values calculated using the Cheng-Prussoff equation.
# (§1) In accordance with the invention, it has been shown that compounds of formula I have a high affinity toward the A2A receptor. In Table I below specific values of prepared compounds are described, Values of KiHA2A and KiHA1 are shown in Table I for compounds of formula 1. A low Ki value is indicative of a particular compound's high affinity toward a particular receptor and conversely a higher Ki value is indicative of a lower affinity for that compound toward a particular receptor. […] Generally speaking, compounds that have a higher HA1/HA2A ratio are able to give a substantially complete blockade of the HA2A receptor without substantially affecting the A1 receptor.
# [2] = molecular target: T2, human adenosine A1 receptor (Homo sapiens, UniProt P30542); assay: Human adenosine A1 receptor radioligand binding assay ([3H]-DPCPX, SPA, CHO cell membranes); conditions: recombinant human A1 receptor expressed in CHO cells; [3H]-DPCPX 0.6 nM; Ki from IC50 by Cheng-Prussoff equation; read-out: hA1 Ki
# T2 construct: expressed in transfected cells; host or cells: CHO cells, semliki forest virus expression system; membrane preparation
# T2 sequence (P30542 1-326): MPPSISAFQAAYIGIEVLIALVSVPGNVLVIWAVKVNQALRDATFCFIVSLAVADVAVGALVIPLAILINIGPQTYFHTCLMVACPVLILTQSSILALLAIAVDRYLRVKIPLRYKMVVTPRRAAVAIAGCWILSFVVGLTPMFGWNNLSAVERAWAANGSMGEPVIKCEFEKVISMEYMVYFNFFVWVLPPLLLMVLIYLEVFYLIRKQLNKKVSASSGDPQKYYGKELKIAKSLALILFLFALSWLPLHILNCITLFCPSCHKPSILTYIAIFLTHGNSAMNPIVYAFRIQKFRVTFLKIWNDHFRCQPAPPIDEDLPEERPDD
# Experimental: Human Adenosine A^1 Receptor
# The gene encoding human adenosinie A1 receptor was recombinantly introduced and expressed in chinese hamster ovary (CHO) cells using the semliki forest virus expression system. Cells were harvested, washed twice by centrifugation, homogenized and again washed by centrifugation. The final washed membrane pellet was suspended in a Tris (50 mM) buffer containing 120 mM NaCl, 5 mM KCl, 2 mM CaCl2 and 10 mM MgCl2 (pH 7.4) (buffer A). The [^3H]-DPCPX (([propyl-3H]8-cyclopentyl-1,3-dipropyxanthine); 0.6 nM) binding assay was carried out in 96-well plates in the presence of 2.5 μg of membrane protein, 0.5 mg of Ysi-poly-1-lysine SPA beads and 0.1 U adenosine deaminase in a final volume of 200 μl of buffer A. Non-specific binding was defined using xanthine amine congener (XAC; 2 μM). Compounds were tested at 10 concentrations from 10 μM-0.3 nM. All assays were conducted in duplicate and repeated at least two times. Assay plates were incubated for 1 hour at room temperature before centrifugation and then bound ligand determined using a Packard Topcount scintillation counter. IC50 values were calculated using a non-linear curve fitting program and Ki values calculated using the Cheng-Prussoff equation.
# as §1
# T1 sequence (P29274 whole entry): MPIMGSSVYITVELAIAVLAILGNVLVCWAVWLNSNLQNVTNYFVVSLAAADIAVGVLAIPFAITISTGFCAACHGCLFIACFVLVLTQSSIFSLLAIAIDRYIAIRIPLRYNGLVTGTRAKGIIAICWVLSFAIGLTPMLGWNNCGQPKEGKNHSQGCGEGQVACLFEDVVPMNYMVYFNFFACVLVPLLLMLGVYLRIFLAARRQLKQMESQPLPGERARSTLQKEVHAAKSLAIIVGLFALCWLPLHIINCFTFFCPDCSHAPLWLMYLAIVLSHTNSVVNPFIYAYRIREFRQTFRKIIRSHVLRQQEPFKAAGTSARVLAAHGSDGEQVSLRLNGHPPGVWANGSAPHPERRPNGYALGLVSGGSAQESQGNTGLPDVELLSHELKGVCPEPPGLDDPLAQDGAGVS
Compound,Selectivity A1/A2a [1],Ki [1],Ki [2]
"COc1ccc(-c2cccs2)n2nc(NC(=O)c3ccc(Cl)cc3)nc12 [Example 15, 4-Chloro-N-(8-methoxy-5-thiophen-2-yl-[1,2,4]triazolo[1,5-a]pyridin-2-yl)-benzamide]",25.6,114 nM,2910 nM
"COc1ccc(-c2cccc(Cl)c2)n2nc(NC(=O)c3ccc(C)s3)nc12 [Example 25, 5-Methyl-thiophene-2-carboxylic acid [5-(3-chloro-phenyl)-8-methoxy-[1,2,4]triazolo[1,5-a]pyridin-2-yl]-amide]",12.7,165 nM,2090 nM
"CCc1ccc(C(=O)Nc2nc3c(OC)ccc(-c4cccs4)n3n2)cc1 [Example 18, 4-Ethyl-N-(8-methoxy-5-thiophen-2-yl-[1,2,4]triazolo[1,5-a]pyridin-2-yl)-benzamide]",24.2,136 nM,3300 nM
